Marks after values point to notes of the source that are not given here.
Tests used:
[1] = target: T1, ≈35 kDa host-cell protein (cathepsin B) (Mus musculus, UniProt P10605); experiment: Competitive labeling of host cell (C2C12) proteins with probe 9; type: cell-based; settings: C2C12 cells
T1 construct: endogenous in cells; host or cells: C2C12 mouse myoblasts
Protocol: The discovery of a potential mammalian off-target of probe 9 (and presumably also of 1) was of considerable interest, so we explored this finding further. To determine if this protein was also a target of 1 and 4, we conducted competition experiments in C2C12 cells. […]
Cellular labeling assay and “click” chemistry: C2C12 cells (1.5 × 10^6 cells) were pre-treated with competitor compounds in culture media (1 mL, DMEM with 10% FBS) for 1 hour at 37 °C.
Then additional competitor compound and 9 (2 µM) were added in culture media (1 mL), and the cells were incubated for an additional hour. The cells were then pelleted, washed with phosphate-buffered saline pH 7.4 (2 × 1 mL), and lysed with 1% SDS in phosphate-buffered saline (400 µL). The denatured lysates were sonicated to reduce viscosity, centrifuged to give pellets of the insoluble material, and normalized for total protein content. The normalized lysates (22 µL, 3 mg/mL) were mixed with TAMRA azide 10 (0.5 µL, 5 mM), TCEP (0.5 µL, 50 mM, pH ~7.0), TBTA ligand in 1:4 DMSO/t-butyl alcohol (1.5 µL, 1 mM), and CuSO4 (0.5 µL, 50 mM).
Reactions were incubated at room temperature for one hour and then resolved by SDS-PAGE.
The resulting gel was scanned for fluorescence (Typhoon Imaging System, Molecular Dynamics) and coomassie stained. […]

[2] = test system: T. cruzi parasites in C2C12 host cells; experiment: High-content imaging-based screening (HCS) assay; type: cell-based; settings: Trypanosoma cruzi; reduces parasite load in C2C12 cells by 90% relative to untreated controls; read-out: T. cruzi growth inhibition HCS EC90
TcCYP51 = TcCYP51 (Trypanosoma cruzi, UniProt Q7Z1V1); experiment: biochemical; settings: UV-vis binding assay; lower limit of KD ~5 nM; read-out: TcCYP51 activity in vitro KD
TcCYP51, sequence (Q7Z1V1 whole entry): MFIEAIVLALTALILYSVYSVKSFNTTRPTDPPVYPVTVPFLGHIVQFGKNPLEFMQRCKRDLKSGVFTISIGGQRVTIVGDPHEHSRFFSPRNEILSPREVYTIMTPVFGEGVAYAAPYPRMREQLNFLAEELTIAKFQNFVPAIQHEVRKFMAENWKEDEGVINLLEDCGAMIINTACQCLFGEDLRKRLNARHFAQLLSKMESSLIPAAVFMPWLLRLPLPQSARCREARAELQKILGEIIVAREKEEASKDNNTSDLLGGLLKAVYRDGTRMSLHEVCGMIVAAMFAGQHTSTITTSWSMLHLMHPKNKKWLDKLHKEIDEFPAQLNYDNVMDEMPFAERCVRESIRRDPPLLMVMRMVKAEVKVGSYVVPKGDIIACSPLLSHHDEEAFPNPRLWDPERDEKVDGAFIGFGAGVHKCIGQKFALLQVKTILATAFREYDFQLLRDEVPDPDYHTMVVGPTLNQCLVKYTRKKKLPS

[3] = test system: TcCYP51 (ergosterol biosynthesis) in intracellular T. cruzi parasites; experiment: Ergosterol biosynthesis / sterol composition of intracellular T. cruzi by GC/MS; type: cell-based, Trypanosoma cruzi; design: key to TcCYP51 cellular activity (Y/N): Y: Compound affects ergosterol biosynthesis at indicated concentration as determined by GC/MS analysis; cellular activity (Y/N, conc.); settings: for effect on sterol (lipid) composition of intracellular T. cruzi: concentrations below MTC
cruzain = cruzain (Trypanosoma cruzi, UniProt P25779); experiment: biochemical; settings: for IC50: kinact/Ki, read-out: cruzain activity (n.a. = not active)
cruzain, sequence (P25779 123-337 limits assumed): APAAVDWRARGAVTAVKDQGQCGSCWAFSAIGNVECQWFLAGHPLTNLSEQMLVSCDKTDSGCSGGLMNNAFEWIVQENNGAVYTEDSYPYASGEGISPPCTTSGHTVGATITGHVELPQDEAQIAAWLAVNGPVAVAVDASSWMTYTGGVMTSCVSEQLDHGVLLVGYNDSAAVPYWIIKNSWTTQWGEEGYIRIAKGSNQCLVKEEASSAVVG

[4] = test system: T. cruzi parasites in J774 macrophage host cells; experiment: Minimum trypanocidal concentration (MTC) assay; type: cell-based, Trypanosoma cruzi
CYP3A4 [5] = target: T2, CYP3A4 (Homo sapiens, UniProt P08684); experiment: Mammalian CYP inhibition panel, 3A4; type: in vitro ADME
T2 sequence (P08684 whole entry): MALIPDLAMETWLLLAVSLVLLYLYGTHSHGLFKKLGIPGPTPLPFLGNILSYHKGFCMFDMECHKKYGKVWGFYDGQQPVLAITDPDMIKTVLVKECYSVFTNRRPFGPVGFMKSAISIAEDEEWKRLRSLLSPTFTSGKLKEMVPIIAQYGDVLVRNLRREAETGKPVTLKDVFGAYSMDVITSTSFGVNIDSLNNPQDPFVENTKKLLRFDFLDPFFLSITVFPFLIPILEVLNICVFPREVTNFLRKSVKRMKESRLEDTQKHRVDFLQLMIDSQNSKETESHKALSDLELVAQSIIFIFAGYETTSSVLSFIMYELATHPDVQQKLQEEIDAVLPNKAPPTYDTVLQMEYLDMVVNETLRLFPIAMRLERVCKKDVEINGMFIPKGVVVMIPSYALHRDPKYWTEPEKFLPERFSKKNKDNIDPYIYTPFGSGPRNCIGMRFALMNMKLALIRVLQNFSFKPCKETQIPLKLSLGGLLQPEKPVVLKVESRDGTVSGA

CYP2D6 = CYP2D6 (Homo sapiens, UniProt P10635); experiment: Mammalian CYP inhibition panel, 2D6; type: in vitro ADME
CYP2D6, sequence (P10635 whole entry): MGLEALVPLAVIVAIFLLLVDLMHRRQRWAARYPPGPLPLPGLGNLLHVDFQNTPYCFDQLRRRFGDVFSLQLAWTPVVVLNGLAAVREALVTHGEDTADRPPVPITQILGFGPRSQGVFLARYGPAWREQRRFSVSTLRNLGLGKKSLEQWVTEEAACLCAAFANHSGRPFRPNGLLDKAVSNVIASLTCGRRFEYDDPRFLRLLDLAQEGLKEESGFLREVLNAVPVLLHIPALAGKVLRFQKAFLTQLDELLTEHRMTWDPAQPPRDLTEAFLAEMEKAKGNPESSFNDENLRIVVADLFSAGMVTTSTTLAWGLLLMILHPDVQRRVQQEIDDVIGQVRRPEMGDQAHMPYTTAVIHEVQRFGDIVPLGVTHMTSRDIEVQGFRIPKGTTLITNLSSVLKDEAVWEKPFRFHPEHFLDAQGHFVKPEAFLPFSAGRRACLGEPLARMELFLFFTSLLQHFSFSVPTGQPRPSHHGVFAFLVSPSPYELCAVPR

CYP2C19 [6] = target: T3, CYP2C19 (Homo sapiens, UniProt P33261); experiment: CYP reversibility study (pre-incubation with or without NADPH), 2C19; type: in vitro ADME; settings: for mechanism of CYP2C19 inhibition: NADPH-dependent shift of IC50
T3 sequence (P33261 whole entry): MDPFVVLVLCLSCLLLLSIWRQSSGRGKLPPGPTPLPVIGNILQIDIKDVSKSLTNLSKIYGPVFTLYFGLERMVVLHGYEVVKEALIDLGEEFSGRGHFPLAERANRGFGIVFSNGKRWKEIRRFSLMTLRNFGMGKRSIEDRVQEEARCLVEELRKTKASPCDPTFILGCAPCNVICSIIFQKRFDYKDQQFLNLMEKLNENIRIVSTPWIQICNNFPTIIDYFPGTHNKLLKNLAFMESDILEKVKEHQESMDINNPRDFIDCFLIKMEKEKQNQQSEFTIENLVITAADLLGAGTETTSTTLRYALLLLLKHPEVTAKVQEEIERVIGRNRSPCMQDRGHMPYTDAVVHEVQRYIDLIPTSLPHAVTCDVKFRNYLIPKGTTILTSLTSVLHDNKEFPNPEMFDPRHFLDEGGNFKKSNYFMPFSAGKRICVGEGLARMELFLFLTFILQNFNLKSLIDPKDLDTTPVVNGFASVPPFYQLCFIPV
Protocol: (§1) CYP Inhibition and reversibility studies
(§2) Mammalian CYP inhibition values and reversibility studies were conducted by WuXi AppTech
(§3) (Tianjin, China 300457) according to standard protocols. […]

P-glycoprotein (P-gp) = settings: stated as known, no reference given; cited from earlier work
CYP2C19 [7] = target: T3, CYP2C19; experiment: Mammalian CYP inhibition panel, 2C19; type: in vitro ADME
CYP3A4 [8] = target: T2, CYP3A4; design: method as in PMID 11038163; settings: cited from earlier work
CYP2C9 = CYP2C9 (Homo sapiens, UniProt P11712); experiment: Mammalian CYP inhibition panel, 2C9; type: in vitro ADME
CYP2C9, sequence (P11712 whole entry): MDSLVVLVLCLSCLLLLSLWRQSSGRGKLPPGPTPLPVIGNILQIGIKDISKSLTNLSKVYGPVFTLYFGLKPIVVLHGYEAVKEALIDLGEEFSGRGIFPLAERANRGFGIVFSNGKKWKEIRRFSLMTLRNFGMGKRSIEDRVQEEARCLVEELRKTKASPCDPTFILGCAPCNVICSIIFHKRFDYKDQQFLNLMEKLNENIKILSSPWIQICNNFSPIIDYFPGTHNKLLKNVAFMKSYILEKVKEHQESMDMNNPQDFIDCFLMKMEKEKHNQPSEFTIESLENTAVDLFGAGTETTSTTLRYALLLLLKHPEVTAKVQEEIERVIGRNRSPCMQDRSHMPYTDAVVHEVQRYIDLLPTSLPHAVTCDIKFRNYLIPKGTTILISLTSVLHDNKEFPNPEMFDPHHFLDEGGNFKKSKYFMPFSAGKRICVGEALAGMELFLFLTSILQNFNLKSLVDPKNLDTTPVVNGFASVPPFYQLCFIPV

CYP3A4 [9] = target: T2, CYP3A4; experiment: CYP reversibility study (pre-incubation with or without NADPH), 3A4; type: in vitro ADME; settings: for mechanism of CYP3A4 inhibition: NADPH-dependent shift of IC50
Protocol: Given the similar IC50 values for 1 and 4 against CYP3A4, we were curious to determine whether 4 is an irreversible inhibitor of this enzyme, as is the case for 1 [30].
as §1, §2, §3

CYP1A2 = target: T4, CYP1A2 (Homo sapiens, UniProt P05177); experiment: Mammalian CYP inhibition panel, 1A2; type: in vitro ADME
T4 sequence (P05177 1-516): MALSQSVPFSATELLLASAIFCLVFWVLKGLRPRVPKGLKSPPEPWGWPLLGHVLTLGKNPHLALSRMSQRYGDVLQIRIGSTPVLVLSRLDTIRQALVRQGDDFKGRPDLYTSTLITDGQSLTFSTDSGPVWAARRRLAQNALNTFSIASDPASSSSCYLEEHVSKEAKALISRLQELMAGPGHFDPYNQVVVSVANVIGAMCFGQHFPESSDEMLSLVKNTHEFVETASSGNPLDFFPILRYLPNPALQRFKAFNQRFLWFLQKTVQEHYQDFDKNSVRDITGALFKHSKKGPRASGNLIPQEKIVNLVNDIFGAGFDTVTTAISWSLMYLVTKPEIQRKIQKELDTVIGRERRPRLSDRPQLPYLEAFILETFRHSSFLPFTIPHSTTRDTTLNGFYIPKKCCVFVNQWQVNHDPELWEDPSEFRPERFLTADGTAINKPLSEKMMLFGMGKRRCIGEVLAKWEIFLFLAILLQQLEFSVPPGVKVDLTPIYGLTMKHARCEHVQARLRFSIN

[10] = test system: CYP1A2, CYP2C9, CYP2C19, CYP2D6, CYP3A4 (average over the panel of mammalian CYP enzymes); experiment: Mammalian CYP inhibition panel, average over panel; type: in vitro ADME; settings: human; average of 1A2, 2C9, 2C19, 2D6, 3A4; read-out: average IC50 across the CYP panel
[11] = pre-incubation at either 1 μM or 10 μM for one hour
[12] = affects ergosterol biosynthesis at 2.0 μM
[13] = clears J774 host cells of parasites at day 40, following 28 days of treatment
[14] = pretreatment with 10 μM for one hour
[15] = affects ergosterol biosynthesis at 0.1 μM

T1 sequence (P10605 80-333 limits assumed): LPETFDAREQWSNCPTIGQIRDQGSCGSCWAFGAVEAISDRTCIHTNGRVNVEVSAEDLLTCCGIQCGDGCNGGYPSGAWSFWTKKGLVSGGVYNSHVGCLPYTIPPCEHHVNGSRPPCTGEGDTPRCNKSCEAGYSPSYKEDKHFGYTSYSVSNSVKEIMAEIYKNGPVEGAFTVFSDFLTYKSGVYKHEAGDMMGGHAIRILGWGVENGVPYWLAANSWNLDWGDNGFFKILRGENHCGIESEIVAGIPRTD

SMILES: CN1CCN(C(=O)N[C@@H](Cc2ccccc2)C(=O)N[C@@H](CCc2ccccc2)CCS(=O)(=O)c2ccccc2)CC1 [Compound 6]
- competition for labeling of the ≈35 kDa band by probe 9 [1, 11]: did not compete for labeling by 9
- EC90 [2]: > 10000 nM
- Kd (TcCYP51): > 2000 nM
- TcCYP51 cellular activity (Y/N) [3, 12]: N (2.0 μM)
- effect on sterol (lipid) composition of intracellular T. cruzi [3]: no significant change in lipid composition
- IC50 (cruzain): > 50000 nM
- T. cruzi growth inhibition MTC [4, 13]: >10 µM

SMILES: C#CCN1CCN(C(=O)N[C@@H](Cc2ccccc2)C(=O)N[C@H](/C=C/S(=O)(=O)c2ccccc2)CCc2ccccc2)CC1 [Compound 9]
- EC90 [2]: 17 nM
- kinact/KI (cruzain): 81500 M⁻¹ s⁻¹
- T. cruzi growth inhibition MTC ([4]; performed in BESM host cell rather than J774 cells): 5^e μM

SMILES: CN1CCN(C(=O)N[C@@H](Cc2ccccc2)C(=O)N[C@H](/C=C/S(=O)(=O)c2ccccc2)CCc2ccccc2)CC1 [Compound 1, reference compound]
- IC50 (CYP3A4 [5]): 1700 nM
- competition for labeling of the ≈35 kDa band by probe 9 [1, 14]: successfully blocked labeling
- EC90 [2]: 100 nM
- IC50 (CYP2D6): 26000 nM
- mechanism of CYP2C19 inhibition (CYP2C19 [6]): reversible inhibitors
- IC50 (CYP2C19 [6]; pre-incubation with NADPH): 5540 nM
- IC50 (CYP2C19 [6]; pre-incubation without NADPH): 8220 nM
- P-glycoprotein (P-gp) substrate (P-glycoprotein (P-gp)): substrate of the drug transporter P-glycoprotein (P-gp)
- Kd (TcCYP51): > 2000 nM
- IC50 (CYP2C19 [7]): 7600 nM
- type of CYP3A4 inhibition (CYP3A4 [8]): mechanism-based (irreversible) inhibitor of CYP3A4
- TcCYP51 cellular activity (Y/N) ([3]; affects ergosterol biosynthesis at 1.6 μM): N (1.6 μM)
- effect on sterol (lipid) composition of intracellular T. cruzi [3]: little effect on sterol composition
- kinact/KI (cruzain): 118000 M⁻¹ s⁻¹
- IC50 (CYP2C9): 32000 nM
- T. cruzi growth inhibition MTC [4, 13]: 8 µM
- mechanism of CYP3A4 inhibition (CYP3A4 [9]): irreversible inhibition
- IC50 (CYP3A4 [9]; pre-incubation with NADPH): 5.9 nM
- IC50 (CYP3A4 [9]; pre-incubation without NADPH): 1080 nM
- IC50 (CYP1A2): 24000 nM

SMILES: Cc1ccc(C[C@H](NC(=O)c2ccccn2)C(=O)N[C@@H](CCc2ccccc2)CCS(=O)(=O)c2ccccc2)cc1 [Compound 7]
- EC90 [2]: > 10000 nM
- Kd (TcCYP51): > 2000 nM
- TcCYP51 cellular activity (Y/N) [3, 15]: N (0.1 μM)
- effect on sterol (lipid) composition of intracellular T. cruzi [3]: no significant change in lipid composition
- IC50 (cruzain): > 50000 nM
- T. cruzi growth inhibition MTC [4, 13]: >10 µM

SMILES: Cc1ccc(C[C@H](NC(=O)c2ccncc2)C(=O)N[C@H](C)c2ccccc2)cc1 [Compound 13]
- EC90 [2]: 3900 nM
- Kd (TcCYP51): 75 ± 26 nM
- IC50 (cruzain): > 50000 nM
- T. cruzi growth inhibition MTC ([4]; read at day 12 following 7 days treatment): 1^f μM

SMILES: Cc1ccc(C[C@H](NC(=O)c2ccccn2)C(=O)N[C@H](/C=C/S(=O)(=O)c2ccccc2)CCc2ccccc2)cc1.O=C(O)C(F)(F)F [Compound 3]
- competition for labeling of the ≈35 kDa band by probe 9 [1, 14]: successfully blocked labeling
- EC90 [2]: 1850 nM
- Kd (TcCYP51): > 2000 nM
- TcCYP51 cellular activity (Y/N) [3, 12]: N (2.0 μM)
- effect on sterol (lipid) composition of intracellular T. cruzi [3]: no significant change in lipid composition
- kinact/KI (cruzain): 16000 M⁻¹ s⁻¹
- T. cruzi growth inhibition MTC [4, 13]: 8 µM

SMILES: O=C(Cn1ccnc1[N+](=O)[O-])NCc1ccccc1 [BNZ, benzindazole, reference compound]
- EC90 [2]: 7200 nM
- T. cruzi growth inhibition MTC [4, 13]: 10 µM

SMILES: Cc1ccc(C[C@H](NC(=O)c2ccncc2)C(=O)N[C@H](/C=C/S(=O)(=O)c2ccccc2)CCc2ccccc2)cc1 [Compound 4, N-[(2S)-1-[[(E,3S)-1-(benzenesulfonyl)-5-phenylpent-1-en-3-yl]amino]-3-(4-methylphenyl)-1-oxopropan-2-yl]pyridine-4-carboxamide]
- IC50 (CYP3A4 [5]): 800 nM
- competition for labeling of the ≈35 kDa band by probe 9 [1, 14]: successfully blocked labeling
- EC90 [2]: 100 nM
- IC50 (CYP2D6): 2700 nM
- IC50 [10]: ~7000 nM
- mechanism of CYP2C19 inhibition (CYP2C19 [6]): reversible inhibitors
- IC50 (CYP2C19 [6]; pre-incubation with NADPH): 300 nM
- IC50 (CYP2C19 [6]; pre-incubation without NADPH): 170 nM
- Kd (TcCYP51): ≤ 5 nM
- IC50 (CYP2C19 [7]): 3400 nM
- TcCYP51 cellular activity (Y/N) ([3]; affects ergosterol biosynthesis at 0.2 μM): Y (0.2 μM)
- effect on sterol (lipid) composition of intracellular T. cruzi [3]: effects very similar to those observed in posaconazole treated parasites
- kinact/KI (cruzain): 67300 M⁻¹ s⁻¹
- IC50 (CYP2C9): 5500 nM
- T. cruzi growth inhibition MTC [4, 13]: 0.6 µM
- fold more potent than 1 in the MTC assay ([4]; relative to compound 1): about 10 fold
- mechanism of CYP3A4 inhibition (CYP3A4 [9]): reversible inhibition
- IC50 (CYP3A4 [9]; pre-incubation with NADPH): 117 nM
- IC50 (CYP3A4 [9]; pre-incubation without NADPH): 46 nM
- IC50 (CYP1A2): 22000 nM

SMILES: CC[C@@H]([C@H](C)O)n1ncn(-c2ccc(N3CCN(c4ccc(OC[C@@H]5CO[C@@](Cn6cncn6)(c6ccc(F)cc6F)C5)cc4)CC3)cc2)c1=O [POSA, posaconazole, reference compound]
- EC90 [2]: 2700 nM
- TcCYP51 cellular activity (Y/N) [3, 15]: Y (0.1 μM)
- effect on sterol (lipid) composition of intracellular T. cruzi [3]: increase in the relative abundance of TcCYP51 substrates lanosterol (f) and eburicol (h)
- T. cruzi growth inhibition MTC [4, 13]: 0.003 µM

SMILES: CC1CCC(C(=O)N[C@H](Cc2c[nH]c3ccccc23)C(=O)Nc2ccncc2)CC1 (stereo partly drawn) [Compound 5, reference compound]
- TcCYP51 cellular activity (Y/N) ([3]; affects ergosterol biosynthesis at 5.0 μM): Y (5.0 μM)
- T. cruzi growth inhibition MTC [4, 13]: ≤10^d μM

SMILES: Cc1ccc(C[C@H](NC(=O)c2ccncc2)C(=O)N[C@@H](CCc2ccccc2)CCS(=O)(=O)c2ccccc2)cc1 [Compound 8]
- competition for labeling of the ≈35 kDa band by probe 9 [1, 11]: did not compete for labeling by 9
- EC90 [2]: 110 nM
- Kd (TcCYP51): ≤ 5 nM
- TcCYP51 cellular activity (Y/N) [3, 15]: Y (0.1 μM)
- effect on sterol (lipid) composition of intracellular T. cruzi [3]: effects very similar to those observed in posaconazole treated parasites
- IC50 (cruzain): > 50000 nM
- T. cruzi growth inhibition MTC [4, 13]: 0.25 µM
- times more potent than 4 in the MTC assay ([4]; relative to compound 4): 2–4 times

SMILES: CNC(=O)[C@H](Cc1ccc(C)cc1)NC(=O)c1ccncc1 [Compound 12]
- EC90 [2]: > 10000 nM
- Kd (TcCYP51): 620 ± 260 nM
- IC50 (cruzain): > 50000 nM
- T. cruzi growth inhibition MTC [4, 13]: >10 µM
- antitrypanosomal effect ([4]; highest concentration examined (10 μM)): no antitrypanosomal effect

SMILES: O=C(N[C@@H](Cc1ccccc1)C(=O)N[C@H](/C=C/S(=O)(=O)c1ccccc1)CCc1ccccc1)c1ccccn1 [Compound 2]
- kinact/KI (cruzain): 120000 M⁻¹ s⁻¹
- T. cruzi growth inhibition MTC [4, 13]: 10 µM
